The assay relates to CD2F1 mice, L1210 leukemia ip, survival T/C. The assay can be described thus: NCI In Vivo Anticancer Drug Screen. Data for tumor model L1210 Leukemia (intraperitoneal) in CD2F1 (CDF1) mice. The following applies: higher = longer survival. The method in brief:
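Ratio T/C, where T is the treated-group value and C the vehicle-dosed control value, from mice implanted with a transplantable tumor.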

The mark [1] stands for this setting: endpoint: mean survival time, dose: 100.0 mg/kg/injection, schedule: Q04DX003 (ip), vehicle: saline with Tween-80.
Where [2] appears, read: endpoint: mean survival time, dose: 200.0 mg/kg/injection, schedule: Q04DX003 (ip), vehicle: saline with Tween-80.
The mark [3] stands for this setting: endpoint: mean survival time, dose: 400.0 mg/kg/injection, schedule: Q04DX003 (ip), vehicle: saline with Tween-80.
Setting [4] is: endpoint: mean survival time, dose: 100.0 mg/kg/injection, schedule: Q04DX003 (ip), vehicle: saline.
Setting [5] is: endpoint: mean survival time, dose: 100.0 mg/kg/injection, schedule: Q01DX009 (ip), vehicle: saline with Tween-80.
Setting [6] is: endpoint: mean survival time, dose: 200.0 mg/kg/injection, schedule: Q01DX009 (ip), vehicle: saline with Tween-80.
Setting [7] is: endpoint: mean survival time, dose: 400.0 mg/kg/injection, schedule: Q01DX009 (ip), vehicle: saline with Tween-80.
Setting [8] is: endpoint: mean survival time, dose: 100.0 mg/kg/injection, schedule: Q01DX009 (ip), vehicle: Klucel (hydroxypropylcellulose) (HPC).

Several values for one entry are separate records, joined by “and”; a condition that tells them apart may be missing. Identical values can stand only once. Toxic doses and inconclusive results are not listed.

With `COc1ccc2c(c1)n([O-])c1ccccc1[n+]2=O`, the T/C by setting is: (endpoint: median survival time, dose: 12.5 mg/kg/injection, schedule: Q01DX005 (ip), vehicle: saline with Tween-80) 116 % of control; (endpoint: median survival time, dose: 12.56 mg/kg/injection, schedule: Q01DX005 (ip), vehicle: saline with Tween-80) 115 % of control; (endpoint: median survival time, dose: 21.6 mg/kg/injection, schedule: Q01DX005 (ip), vehicle: saline with Tween-80) 115 % of control; (endpoint: median survival time, dose: 25.0 mg/kg/injection, schedule: Q01DX005 (ip), vehicle: saline with Tween-80) 116 % of control; (endpoint: median survival time, dose: 36.0 mg/kg/injection, schedule: Q01DX005 (ip), vehicle: saline with Tween-80) 222 % of control and 112 % of control; (endpoint: median survival time, dose: 50.0 mg/kg/injection, schedule: Q01DX005 (ip), vehicle: saline with Tween-80) 117 % of control. Moreover, the T/C (endpoint: median survival time, dose: 60.0 mg/kg/injection, schedule: Q01DX005 (ip), vehicle: saline with Tween-80) was 120 % of control and 287 % of control; the T/C (endpoint: median survival time, dose: 100.0 mg/kg/injection, schedule: Q01DX005 (ip), vehicle: saline with Tween-80) was 300 % of control; the T/C (endpoint: median survival time, dose: 166.67 mg/kg/injection, schedule: Q01DX005 (ip), vehicle: saline with Tween-80) was 123 % of control.
For `CC(C)(C)OOC(=O)C1CCCCCCC1`, the T/C was 98 % of control under setting [1], 96 % of control under setting [2] and 96 % of control under setting [3].
Take `CC1(C)CC(=O)C2=C(C1)OC1=C(C(=O)CC(C)(C)C1)C2c1ccccc1Cl`: the T/C under setting [1] is 102 % of control, the T/C under setting [2] is 100 % of control and the T/C under setting [3] is 104 % of control.
In the case of `Nc1c(C(=O)O)ncn1C1OC(CO)C(O)C1O` (stereo unspecified), the T/C (endpoint: median survival time, dose: 7.88 mg/kg/injection, schedule: Q01DX005 (ip), vehicle: saline) is 101 % of control; the T/C (endpoint: median survival time, dose: 15.75 mg/kg/injection, schedule: Q01DX005 (ip), vehicle: saline) is 104 % of control; the T/C (endpoint: median survival time, dose: 31.5 mg/kg/injection, schedule: Q01DX005 (ip), vehicle: saline) was 104 % of control; the T/C (endpoint: median survival time, dose: 63.0 mg/kg/injection, schedule: Q01DX005 (ip), vehicle: saline) is 103 % of control; the T/C (endpoint: median survival time, dose: 126.0 mg/kg/injection, schedule: Q01DX005 (ip), vehicle: saline) was 92 % of control.
`COc1ccc(C(=O)C(C)(C)C)cc1`: the T/C was 108 % of control (endpoint: mean survival time, dose: 100.0 mg/kg/injection, schedule: Q04DX002 (ip), vehicle: saline with Tween-80) and 97 % of control (endpoint: mean survival time, dose: 200.0 mg/kg/injection, schedule: Q04DX002 (ip), vehicle: saline with Tween-80).
With `Oc1ccc(C(c2ccc(O)cc2)C(Cl)(Cl)Cl)cc1`, the T/C is 101 % of control (endpoint: mean survival time, dose: 100.0 mg/kg/injection, schedule: Q04DX003 (ip), vehicle: Klucel (hydroxypropylcellulose) (HPC)); 101 % of control (endpoint: mean survival time, dose: 200.0 mg/kg/injection, schedule: Q04DX003 (ip), vehicle: Klucel (hydroxypropylcellulose) (HPC)); 93 % of control (endpoint: mean survival time, dose: 400.0 mg/kg/injection, schedule: Q04DX003 (ip), vehicle: Klucel (hydroxypropylcellulose) (HPC)).
For the compound `Cc1cn(C2CC(O)C(CO)O2)c(=O)nc1N1CCCC1` (stereo unspecified), the T/C by setting is: (endpoint: median survival time, dose: 12.5 mg/kg/injection, schedule: Q01DX005 (ip), vehicle: water) 103 % of control; (endpoint: median survival time, dose: 25.0 mg/kg/injection, schedule: Q01DX005 (ip), vehicle: water) 108 % of control; (endpoint: median survival time, dose: 50.0 mg/kg/injection, schedule: Q01DX005 (ip), vehicle: water) 102 % of control; (endpoint: median survival time, dose: 100.0 mg/kg/injection, schedule: Q01DX005 (ip), vehicle: water) 101 % of control; (endpoint: median survival time, dose: 200.0 mg/kg/injection, schedule: Q01DX005 (ip), vehicle: water) 102 % of control.
As for `C=C1C(=O)OC2/C=C(\C)C3OC3/C=C(/C(=O)OC)C(O)C(OC(=O)C3(C)OC3C)C12` (stereo unspecified), for the setting “endpoint: mean survival time, dose: 100.0 mg/kg/injection, schedule: Q01DX001 (ip), vehicle: saline with Tween-80”, the T/C was 104 % of control.
For `CC(C)(C)N.[O]=[Cr](=[O])([OH])[OH]`, the T/C was 104 % of control (endpoint: mean survival time, dose: 5.0 mg/kg/injection, schedule: Q01DX001 (ip), vehicle: saline); 102 % of control (endpoint: mean survival time, dose: 10.0 mg/kg/injection, schedule: Q01DX001 (ip), vehicle: saline); 96 % of control (endpoint: mean survival time, dose: 20.0 mg/kg/injection, schedule: Q01DX001 (ip), vehicle: saline); 94 % of control (endpoint: mean survival time, dose: 40.0 mg/kg/injection, schedule: Q01DX001 (ip), vehicle: saline).
On to `CN=C(N)N=C(N)N`, for which the T/C is, setting by setting: under setting [4], 103 % of control; (endpoint: mean survival time, dose: 200.0 mg/kg/injection, schedule: Q04DX003 (ip), vehicle: saline) 100 % of control; (endpoint: mean survival time, dose: 400.0 mg/kg/injection, schedule: Q04DX003 (ip), vehicle: saline) 95 % of control.
As to `CCCCC(=O)c1cc(O)ccc1O`, the T/C was 107 % of control (endpoint: mean survival time, dose: 100.0 mg/kg/injection, schedule: Q01DX001 (ip), vehicle: saline); 98 % of control (endpoint: mean survival time, dose: 200.0 mg/kg/injection, schedule: Q01DX001 (ip), vehicle: saline); 92 % of control (endpoint: mean survival time, dose: 400.0 mg/kg/injection, schedule: Q01DX001 (ip), vehicle: saline).
For the compound `S=c1[nH]ccn1-c1cccc(Br)c1`, the T/C is 112 % of control under setting [5], 103 % of control under setting [6] and 112 % of control under setting [7].
As for `Nc1ccc2c(c1)C=CCS2`, the T/C under setting [5] was 102 % of control; the T/C under setting [1] is 104 % of control; the T/C under setting [6] was 98 % of control; the T/C under setting [2] was 98 % of control; the T/C under setting [7] is 90 % of control; the T/C under setting [3] is 104 % of control.
Take `O=C1OC(c2ccccc2)(c2ccccc2)c2ccc3ccccc3c21`: the T/C reads like this: under setting [1], 96 % of control; under setting [2], 93 % of control; under setting [3], 90 % of control.
Take `CCN(CC)Cc1cc([N+](=O)[O-])ccc1O`: the T/C is 104 % of control (endpoint: mean survival time, dose: 75.0 mg/kg/injection, schedule: Q01DX001 (ip), vehicle: saline) and 100 % of control (endpoint: mean survival time, dose: 150.0 mg/kg/injection, schedule: Q01DX001 (ip), vehicle: saline).
Consider `N#[N+]c1c(C(=O)O)[nH]c(=O)[nH]c1=O`, for which the T/C was 100 % of control (endpoint: mean survival time, dose: 12.5 mg/kg/injection, schedule: Q01DX009 (ip), vehicle: saline with Tween-80); 101 % of control (endpoint: mean survival time, dose: 12.5 mg/kg/injection, schedule: Q04DX003 (ip), vehicle: saline with Tween-80); 91 % of control (endpoint: mean survival time, dose: 25.0 mg/kg/injection, schedule: Q01DX009 (ip), vehicle: saline with Tween-80); 102 % of control (endpoint: mean survival time, dose: 25.0 mg/kg/injection, schedule: Q04DX003 (ip), vehicle: saline with Tween-80); 96 % of control (endpoint: mean survival time, dose: 50.0 mg/kg/injection, schedule: Q01DX009 (ip), vehicle: saline with Tween-80).
`O=c1[nH]c(SCc2ccccc2)nc(-c2ccc(Cl)cc2)c1CCO`: the T/C reads like this: under setting [8], 87 % of control; (endpoint: mean survival time, dose: 200.0 mg/kg/injection, schedule: Q01DX009 (ip), vehicle: Klucel (hydroxypropylcellulose) (HPC)) 89 % of control; (endpoint: mean survival time, dose: 400.0 mg/kg/injection, schedule: Q01DX009 (ip), vehicle: Klucel (hydroxypropylcellulose) (HPC)) 88 % of control.
Regarding `COc1ccc(C2C3CCC(C3)C2N)cc1` (stereo unspecified), the T/C is 96 % of control (endpoint: mean survival time, dose: 5.0 mg/kg/injection, schedule: Q01DX009 (ip), vehicle: saline); 96 % of control (endpoint: mean survival time, dose: 10.0 mg/kg/injection, schedule: Q01DX009 (ip), vehicle: saline); 92 % of control (endpoint: mean survival time, dose: 20.0 mg/kg/injection, schedule: Q01DX009 (ip), vehicle: saline); 101 % of control (endpoint: mean survival time, dose: 25.0 mg/kg/injection, schedule: Q04DX003 (ip), vehicle: saline); 96 % of control (endpoint: mean survival time, dose: 50.0 mg/kg/injection, schedule: Q04DX003 (ip), vehicle: saline); 90 % of control under setting [4].
For `Nc1nc(N)c2cc(CNc3ccc(C(=O)NC(CC(=O)O)CC(=O)O)cc3)cnc2n1`, the T/C is, setting by setting: (endpoint: mean survival time, dose: 50.0 mg/kg/injection, schedule: Q01DX009 (ip), vehicle: Klucel (hydroxypropylcellulose) (HPC)) 94 % of control; under setting [8], 98 % of control.
